Several values for one entry are separate records, joined by “and”; a condition that tells them apart may be missing. Identical values can stand only once. Entries after “also recorded” stand apart in the source; their conditions may differ. Like-named read-outs stand apart in the source and are kept apart here.
Legend:
[1] = target: T1, α4β2 nicotinic acetylcholine receptor (Rattus norvegicus, UniProt P09483+P12390); test: Receptor binding α4β2, inhibition of [3H]-(S)-nicotine binding, rat brain membranes
T1 construct: from tissue; host or cells: rat brain cortical membranes

[2] = target: human α4β2 (Homo sapiens, UniProt P17787+P43681); test: Receptor binding α4β2, recombinant human receptors in SH-EP1 cells; conditions: [3H]-S-nicotine, human α4β2 expressed in SH-EP1 cells
[3] = target: a6b3b4a5 (Homo sapiens, UniProt P30926+Q15825); test: Receptor binding a6b3b4a5
[4] = tested on: α4β2 (rat), a4b2*/a6b2*; test: Receptor function, [3H]-dopamine release from rat striatal synaptosomes; assay type: biochemical
[5] = target: a6/a3b2b3 (Homo sapiens, UniProt P17787+P32297+Q15825); test: Receptor function a6/a3b2b3, Ca++ flux; assay type: cell-based
[6] = target: high and low sensitivity alpha4beta2-containing NNR subtypes (Homo sapiens, UniProt P17787+P43681); test: Electrophysiology studies; assay type: cell-based
Excerpt: It is readily absorbed following oral administration and has favorable pharmacokinetics.

[7] = tested on: neuronal nicotinic receptors; test: In vitro binding (off-target receptors) at 10 μM; conditions: hemigalactarate salt
[8] = target: T2, muscarinic M4 (Homo sapiens, UniProt P08173); test: Follow-up dose response binding assay (CEREP)
T2 construct: CEREP (contract laboratory, per the earlier reading)

[9] = tested on: STZ rat model of diabetic neuropathy; test: Mechanical allodynia, STZ rat model of diabetic neuropathy; assay type: in vivo, Rat: Sprague-Dawley
[10] = tested on: behavioral sensitization; test: CNS safety pharmacology, behavioral sensitization by motor activity; assay type: in vivo, Rat: Sprague-Dawley
[11] = tested on: pentylenetetrazole convulsions; test: CNS safety pharmacology, convulsant properties with subconvulsant pentylenetetrazole; assay type: in vivo, Rat: Sprague-Dawley
[12] = CNS safety pharmacology, body temperature; assay type: in vivo, Rat: Sprague-Dawley; conditions: po, doses up to and including 100 mg/kg
[13] = pKa; assay type: physicochemical
[14] = Distribution coefficient; assay type: physicochemical; conditions: pH 7.4
[15] = Single dose pharmacokinetics studies; assay type: in vivo; conditions: Swiss (mouse), Sprague-Dawley (rat), cynomolgus (monkey), plasma, oral, rat and monkey, read-out: time to reach maximum concentration (Tmax)
Protocol: In a monkey study, [^14C]-Compound 1 was given at 10 mg/kg orally or 5 mg/kg by iv infusion. Oral bioavailability in this study was about 30%.

[16] = stability in human liver microsomes, heat-treated human liver microsomes and human S9 fractions; assay type: in vitro ADME; conditions: all test systems
Excerpt: In human and monkey, the primary route of metabolism was through oxidation of the pyrrolidine ring (metabolite M02) before further metabolism via dioxidation to M1 or M3. In humans, parent accounted for 37% of extracellular radioactivity, M02 was 13.9%.M1 was 4.1% and M3 was 1.1%. In monkey, parent accounted for 14.2%, M02 was 5.0%, M1 was 5.8% and M3 was 29.4%. In the rat, the primary metabolite is an N-oxide-pyrimidine derivative (M9); it accounted for 71.9% of extracellular radioactivity while parent represented only 1.4%.

[17] = 13-week repeat-dose oral toxicity in Cynomolgus monkeys; assay type: in vivo, Cynomolgus monkey; conditions: for AUC / Cmax: plasma, po, at the NOAEL (30 mg/kg); for incidence of mild interstitial vacuolization in the heart: 60 mg/kg
Protocol: Compound 1 was given to Cynomolgus monkeys once daily for at least 13 weeks via oral gavage at doses of 10, 30, or 60 mg/kg/day. At the end of the dosing period, 2 monkeys per sex in the high-dose and control dose groups were selected for a recovery of 4 weeks. […] In the surviving monkeys at 60 mg/kg/day, clinical observations included emesis, decreased motor activity, body weight loss, slight increases in QT (up to +16%), QTcB (up to +9.2%), and QTcF (up to +11%) intervals that were associated with slight decreases in heart rate. These findings had resolved by the end of the 4-week recovery period. […] At 30 mg/kg, all animals had emesis, but they had fewer episodes of emesis than the animals dosed at 60 mg/kg. The dose of 30 mg/kg was well tolerated and was considered the NOAEL, Cmax and AUC increased less than proportionally at doses between 10 and 30 mg/kg.

[18] = tested on: cultured human peripheral blood lymphocytes; test: chromosome aberration assay; assay type: cell-based; conditions: in vitro
Excerpt: Compound 1 was negative for mutagenicity in both in vitro bioassays—including an Ames test, a micronucleus test in mouse lymphoma cells, and a chromosome aberration assay using cultured human peripheral blood lymphocytes—and an in vivo rat bone marrow micronucleus test.

[19] = single-dose nasal spray tolerability and PK in rabbits; assay type: in vivo, New Zealand White rabbit; conditions: male rabbits
Protocol: The potential toxicity and TK of Compound 1 nasal spray was assessed following a single spray (100 μL) of either 2% or 5% Compound 1 in the right nostril of male New Zealand White rabbits (N=36). Phosphate buffered solution (PBS) served as the control and was sprayed (100 μL) in the left nostril. Bioanalytical and histopathological analyses were conducted at 1, 3, 6, 9, and 24 h post-treatment. Prior to sacrifice, the intranasal/nasal area of each animal was assessed using the Draize Classification System for Scoring Skin Irritation.

[20] = [3H] DA release, Rat Striatal Synaptosomes
[21] = [3H]-DA release, rat striatal synaptosomes
[22] = female, cynomolgus monkey, females
[23] = surviving monkeys, 60 mg/kg/day

a6/a3b2b3, sequence (Q15825+P32297 fused with the stated changes): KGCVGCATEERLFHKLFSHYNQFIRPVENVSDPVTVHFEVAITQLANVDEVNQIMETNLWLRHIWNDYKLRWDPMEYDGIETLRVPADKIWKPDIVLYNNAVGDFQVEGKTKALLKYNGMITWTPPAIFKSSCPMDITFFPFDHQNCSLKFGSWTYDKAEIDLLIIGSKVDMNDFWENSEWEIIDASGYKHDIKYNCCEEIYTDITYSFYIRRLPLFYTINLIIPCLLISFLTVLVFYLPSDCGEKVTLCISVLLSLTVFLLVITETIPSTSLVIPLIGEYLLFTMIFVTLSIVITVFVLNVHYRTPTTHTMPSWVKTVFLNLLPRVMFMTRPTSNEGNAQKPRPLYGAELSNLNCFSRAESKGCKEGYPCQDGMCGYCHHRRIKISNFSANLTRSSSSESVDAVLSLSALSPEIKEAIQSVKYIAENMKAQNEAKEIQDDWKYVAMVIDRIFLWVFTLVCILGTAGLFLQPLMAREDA
a6/a3b2b3, sequence (P17787 26-502): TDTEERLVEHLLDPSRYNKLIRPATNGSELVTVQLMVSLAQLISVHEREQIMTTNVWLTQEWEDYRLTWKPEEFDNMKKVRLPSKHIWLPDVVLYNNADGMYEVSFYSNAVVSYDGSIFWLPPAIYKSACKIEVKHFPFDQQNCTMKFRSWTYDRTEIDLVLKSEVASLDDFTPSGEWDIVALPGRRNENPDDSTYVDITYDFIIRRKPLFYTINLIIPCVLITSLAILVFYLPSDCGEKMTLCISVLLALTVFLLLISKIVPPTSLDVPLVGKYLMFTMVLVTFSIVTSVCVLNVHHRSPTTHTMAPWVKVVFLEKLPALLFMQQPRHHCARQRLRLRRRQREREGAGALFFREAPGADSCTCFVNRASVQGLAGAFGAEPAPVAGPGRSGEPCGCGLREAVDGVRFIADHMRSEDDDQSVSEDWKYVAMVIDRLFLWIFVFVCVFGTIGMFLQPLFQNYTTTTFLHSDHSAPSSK
a6/a3b2b3, sequence (Q05901 25-458 partner limits assumed): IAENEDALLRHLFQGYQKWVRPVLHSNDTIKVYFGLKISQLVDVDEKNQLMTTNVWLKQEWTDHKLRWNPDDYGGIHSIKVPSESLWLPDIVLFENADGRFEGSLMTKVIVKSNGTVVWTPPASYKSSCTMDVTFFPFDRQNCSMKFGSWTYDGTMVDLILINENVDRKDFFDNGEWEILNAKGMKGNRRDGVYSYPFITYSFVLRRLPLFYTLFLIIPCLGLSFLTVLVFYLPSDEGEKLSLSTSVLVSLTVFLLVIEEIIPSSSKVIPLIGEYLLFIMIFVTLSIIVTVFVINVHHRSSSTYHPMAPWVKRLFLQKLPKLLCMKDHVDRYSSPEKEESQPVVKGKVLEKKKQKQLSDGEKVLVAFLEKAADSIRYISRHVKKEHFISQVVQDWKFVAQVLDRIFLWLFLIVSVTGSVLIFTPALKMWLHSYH
T1 sequence (P09483 31-630): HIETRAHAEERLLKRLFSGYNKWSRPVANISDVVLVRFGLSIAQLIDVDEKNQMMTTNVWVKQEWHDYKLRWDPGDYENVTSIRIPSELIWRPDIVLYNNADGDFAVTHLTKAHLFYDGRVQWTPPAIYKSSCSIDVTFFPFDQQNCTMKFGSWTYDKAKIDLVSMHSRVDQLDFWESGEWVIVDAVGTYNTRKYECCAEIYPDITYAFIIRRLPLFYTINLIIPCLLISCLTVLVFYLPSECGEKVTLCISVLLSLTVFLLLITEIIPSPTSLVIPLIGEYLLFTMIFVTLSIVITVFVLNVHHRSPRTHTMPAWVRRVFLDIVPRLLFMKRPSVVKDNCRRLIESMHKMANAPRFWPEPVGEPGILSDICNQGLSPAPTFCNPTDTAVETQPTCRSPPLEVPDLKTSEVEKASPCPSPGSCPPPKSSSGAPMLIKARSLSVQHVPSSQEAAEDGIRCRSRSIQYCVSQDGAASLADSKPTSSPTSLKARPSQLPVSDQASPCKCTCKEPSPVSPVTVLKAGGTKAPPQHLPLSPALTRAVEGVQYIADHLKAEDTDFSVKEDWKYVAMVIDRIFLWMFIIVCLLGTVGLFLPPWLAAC
T1 sequence (P12390 25-500): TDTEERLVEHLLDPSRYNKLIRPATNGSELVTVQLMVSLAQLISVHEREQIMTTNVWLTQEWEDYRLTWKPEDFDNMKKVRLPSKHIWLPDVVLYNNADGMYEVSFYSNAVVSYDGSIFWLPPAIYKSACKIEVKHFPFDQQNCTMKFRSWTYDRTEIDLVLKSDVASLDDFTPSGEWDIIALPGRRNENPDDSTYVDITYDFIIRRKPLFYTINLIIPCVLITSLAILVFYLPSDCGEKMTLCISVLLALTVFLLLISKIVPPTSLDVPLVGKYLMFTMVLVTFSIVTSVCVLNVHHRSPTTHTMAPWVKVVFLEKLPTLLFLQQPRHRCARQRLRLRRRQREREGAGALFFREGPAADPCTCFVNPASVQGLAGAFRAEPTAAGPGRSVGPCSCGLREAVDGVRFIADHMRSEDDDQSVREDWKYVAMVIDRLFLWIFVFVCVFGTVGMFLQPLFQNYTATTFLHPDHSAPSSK
high and low sensitivity alpha4beta2-containing NNR subtypes, sequence (P43681 29-627 limits assumed): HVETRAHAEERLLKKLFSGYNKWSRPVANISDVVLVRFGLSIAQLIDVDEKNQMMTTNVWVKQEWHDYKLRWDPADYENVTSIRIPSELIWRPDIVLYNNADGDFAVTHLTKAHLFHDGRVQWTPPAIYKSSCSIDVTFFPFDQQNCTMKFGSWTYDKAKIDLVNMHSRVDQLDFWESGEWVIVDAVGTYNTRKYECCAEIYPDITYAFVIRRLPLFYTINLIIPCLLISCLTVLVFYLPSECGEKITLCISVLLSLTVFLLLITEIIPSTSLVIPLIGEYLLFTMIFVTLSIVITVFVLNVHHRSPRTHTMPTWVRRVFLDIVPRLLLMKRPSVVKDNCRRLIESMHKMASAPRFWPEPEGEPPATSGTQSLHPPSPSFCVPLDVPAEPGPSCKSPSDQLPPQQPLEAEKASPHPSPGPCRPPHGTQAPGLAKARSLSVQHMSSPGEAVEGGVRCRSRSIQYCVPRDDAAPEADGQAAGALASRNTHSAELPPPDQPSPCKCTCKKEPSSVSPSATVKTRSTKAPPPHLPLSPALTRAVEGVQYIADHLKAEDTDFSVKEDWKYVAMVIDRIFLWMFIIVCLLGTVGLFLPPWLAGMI
high and low sensitivity alpha4beta2-containing NNR subtypes, sequence (P17787 26-502): as the sequence (P17787 26-502) above
human α4β2, sequence (P43681 29-627 limits assumed): as the sequence (P43681 29-627 limits assumed) above
human α4β2, sequence (P17787 26-502): as the sequence (P17787 26-502) above
a6b3b4a5, sequence (Q15825 26-494): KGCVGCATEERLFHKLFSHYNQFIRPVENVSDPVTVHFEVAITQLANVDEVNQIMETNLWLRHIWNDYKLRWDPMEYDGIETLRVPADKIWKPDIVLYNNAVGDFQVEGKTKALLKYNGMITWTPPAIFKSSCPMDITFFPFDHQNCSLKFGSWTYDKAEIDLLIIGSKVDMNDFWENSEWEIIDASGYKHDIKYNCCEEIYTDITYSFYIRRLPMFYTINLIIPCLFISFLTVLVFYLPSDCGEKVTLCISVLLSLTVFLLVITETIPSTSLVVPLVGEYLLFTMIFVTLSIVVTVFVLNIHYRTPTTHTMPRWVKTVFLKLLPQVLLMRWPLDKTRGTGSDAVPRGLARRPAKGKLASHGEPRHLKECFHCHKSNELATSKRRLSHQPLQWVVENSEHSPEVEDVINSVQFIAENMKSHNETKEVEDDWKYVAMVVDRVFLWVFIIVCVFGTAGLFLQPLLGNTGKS
a6b3b4a5, sequence (P30926 22-498): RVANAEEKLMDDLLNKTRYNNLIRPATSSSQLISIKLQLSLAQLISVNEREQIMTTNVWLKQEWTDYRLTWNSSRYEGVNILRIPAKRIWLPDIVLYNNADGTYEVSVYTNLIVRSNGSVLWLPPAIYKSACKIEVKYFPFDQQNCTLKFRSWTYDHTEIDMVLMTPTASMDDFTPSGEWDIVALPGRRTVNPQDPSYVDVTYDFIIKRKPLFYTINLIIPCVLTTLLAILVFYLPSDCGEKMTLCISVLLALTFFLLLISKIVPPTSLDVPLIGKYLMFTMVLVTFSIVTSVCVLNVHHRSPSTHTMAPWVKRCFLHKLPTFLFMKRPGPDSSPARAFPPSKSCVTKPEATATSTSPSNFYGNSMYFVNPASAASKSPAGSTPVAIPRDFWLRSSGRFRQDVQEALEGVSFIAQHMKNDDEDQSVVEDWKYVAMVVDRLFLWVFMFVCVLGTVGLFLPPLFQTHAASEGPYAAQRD
a6b3b4a5, sequence (Q05901 25-458 partner limits assumed): as the sequence (Q05901 25-458 partner limits assumed) above
a6b3b4a5, sequence (P30532 23-468 partner): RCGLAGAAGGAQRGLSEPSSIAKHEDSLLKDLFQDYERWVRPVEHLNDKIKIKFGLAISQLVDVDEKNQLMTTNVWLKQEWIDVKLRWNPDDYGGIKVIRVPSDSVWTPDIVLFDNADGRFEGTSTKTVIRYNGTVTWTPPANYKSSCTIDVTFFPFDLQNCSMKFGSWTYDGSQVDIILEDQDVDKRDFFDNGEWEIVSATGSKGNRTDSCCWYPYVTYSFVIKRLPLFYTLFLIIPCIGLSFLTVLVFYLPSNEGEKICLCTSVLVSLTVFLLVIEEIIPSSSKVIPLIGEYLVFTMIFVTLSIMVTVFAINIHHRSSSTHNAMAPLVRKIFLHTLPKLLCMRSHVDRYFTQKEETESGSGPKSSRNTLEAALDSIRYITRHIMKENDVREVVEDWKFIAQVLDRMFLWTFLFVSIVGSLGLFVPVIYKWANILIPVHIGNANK

## C(=C\[C@H]1CCNC1)/c1cncnc1 [Compound 1, (R)-5-((E)-2-pyrrolidin-3-ylvinyl)pyrimidine]
[1]; Rat a4b2, assay and tissue type not given
  Ki: 34 nM
[1]; [3H]-S-nicotine, rat brain cortical membranes
  Ki: 27 nM
[2]
  Ki: 17 nM
[3]
  Ki: 1100 nM
[4]; [20]
  DA Release ratio: 0.55 DA
  EC50: 3900 nM and 3930 nM
  Emax: 110 and 114
[4]; [21]
  EC50: 3930 nM
  Emax: 114 % of nicotine
  agonist type at the α4β2 subtype: nM. Compound 1 is a full agonist at the α4β2
[5]; Human a6/a3b2b3
  (Imax): 49
  IC50: 2800 nM
[5]; Human a6/a3b2b3, Ca++ Flux
  DC50: 31 nM
  Dmax: 99%
  EC50: 470 nM
  Emax: 92%
[6]
  activity at high and low sensitivity alpha4beta2-containing NNR subtypes: agonist activity
[7]
  binding affinity: nicotinic receptors (100%), the only
[8]
  Ki: 5800 nM
[9]; 0.5 and 2 hr post-dosing, Compound 1 0.1 and 1 mg/kg po, Gabapentin 100 mg/kg ip
  allodynia, acute dosing: significantly reversed; also recorded: Acute Dosing - Compound 1 reversed
[9]; animal models of neuropathic pain, compared to gabapentin
  onset of action: 30 min
[9]; once daily 0.1, 1, 10 mg/kg po, all doses, 6 weeks post-STZ dosing
  allodynia, repeat dosing: significantly reversed; also recorded: all dosessignificantly reduced
[9]; repeat dosing, 4 weeks post-dosing
  dose levels producing reversal of mechanical allodynia: 4 weeks post-dosing, no dose
[10]; 30 mg/kg, 15 days cross-challenge
  interaction between Compound 1 and nicotine in behavioral sensitization: daily for 15 days indicated no interaction
[10]; Compound 1 3, 10, 30 mg/kg po
  behavioral sensitization (motor activity): no noteworthy changes; also recorded: not associated with behavioral
[11]; 10, 30, 100 mg/kg po
  convulsions in combination with subconvulsant pentylenetetrazole: no noteworthy changes; also recorded: not did not induce convulsions. D-
[11]; po with pentylenetetrazole
  NOEL, convulsant properties: The NOEL was 100 mg/kg.
[12]
  effect on body temperature: no noteworthy changes; also recorded: Compound 1 had no effect on body
[13]; read-out: pKa(1)
  pKa: 1.73
[13]; read-out: pKa(2)
  pKa: 10.3
[14]
  logD: < 1
[15]
  Tmax: 0.167 to 2.25 h
[16]
  metabolic stability: relatively stable
[17]; both sexes, cynomolgus monkey, in vivo, Cynomolgus monkeys, oral gavage once daily, 13 weeks
  NOAEL at 13 weeks: 30 mg/kg
[17]; [22]
  AUC: 2440 ng·h/mL
  Cmax: 696 ng/mL
[17]; females
  incidence of mild interstitial vacuolization in the heart: 2 of 3
[17]; male, cynomolgus monkey, males
  AUC: 1670 ng·h/mL
  Cmax: 382 ng/mL
[17]; males
  incidence of mild interstitial vacuolization in the heart: 1 of 2
[17]; one monkey at 60 mg/kg/day sacrificed during the fourth week
  body weight loss vs. Day 1 value: −22%
[17]; [23]
  increase in QT interval: up to +16%
  increase in QTcB interval: up to +9.2%
  increase in QTcF interval: up to +11%
[18]
  mutagenicity, chromosome aberration assay: negative
[19]; single 100 μL spray of 2% or 5%
  intranasal/nasal assessment (Draize): no signs of erythema, edema, eschar formation or discharge
[19]; single 100 μL spray of 2% or 5% in right nostril
  clinical signs: No clinical signs were observed
[19]; single 100 μL spray of 2% or 5%, 1 to 24 h post-treatment
  histopathology of the nasal cavity: no macroscopic or microscopic findings

Reference: patent US10709707B2, “Methods of treating ocular conditions” (Oyster Point Pharma, Inc., priority 2016, dated 2020)
